Results from patent US12660819B2, “Herbicidal derivatives” (SYNGENTA CROP PROTECTION AG, priority 2020, dated 2026).

Key:
Assay type in all cases: in vivo
[1] = system: Amaranthus palmeri (AMAPA); assay: Post-emergence Test (glasshouse, percentage damage to the plant); settings: post-emergence; 1000 g/ha unless otherwise stated; evaluated after 13 days
In short: (§1)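 Compound formulated in 50:50 acetone/water with 0.5% Tween 20 was diluted to an aqueous spray and applied at 1000 g/ha, unless otherwise stated, onto sown pots. Evaluation after 13 days gave percentage damage, banded into a 1–5 score.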

[2] = system: Amaranthus retoflexus (AMARE); assay: as above; settings: post-emergence; 1000 g/ha unless otherwise stated; evaluated after 13 days
In short: as §1

[3] = system: Ipomoea hederacea (IPOHE); assay: as above; settings: post-emergence; 1000 g/ha unless otherwise stated; evaluated after 13 days
In short: (§2)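 Damage was rated 13 days after treatment and expressed on a five-point scale: 5=81-100%, 4=61-80%, 3=41-60%, 2=21-40%, 1=0-20%. Spray was applied at 1000 g/ha unless otherwise stated, from acetone/water (50:50) with 0.5% Tween 20, to sown pots.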

Setaria faberi (SETFA) [4] = assay: as above; settings: post-emergence; 1000 g/ha unless otherwise stated; evaluated after 13 days
In short: as §2

Zea mays (ZEAMX) [5] = assay: as above; settings: post-emergence; 1000 g/ha unless otherwise stated; evaluated after 13 days
In short: as §2

[6] = system: Amaranthus retoflexus (AMARE); assay: Pre-emergence Test (glasshouse, percentage damage to the plant); settings: 1000 g/ha unless otherwise stated, Amaranthus retoflexus
Setaria faberi (SETFA) [7] = assay: as above; settings: 1000 g/ha unless otherwise stated, Setaria faberi
[8] = system: Echinochloa crus-galli (ECHCG); assay: as above; settings: 1000 g/ha unless otherwise stated, Echinochloa crus-galli
[9] = system: Ipomoea hederacea (IPOHE); assay: as above; settings: 1000 g/ha unless otherwise stated, Ipomoea hederacea
Zea mays (ZEAMX) [10] = assay: as above; settings: 1000 g/ha unless otherwise stated, Zea mays
[11] = system: Amaranthus palmeri (AMAPA); assay: as above; settings: 1000 g/ha unless otherwise stated, Amaranthus palmeri

CCn1c(C)c(-c2ccc(S(C)(=O)=O)cc2F)c(=O)c(C(=O)O)c1-c1ccc(Cl)c(Cl)c1 [Compound 239, 2-(3,4-dichlorophenyl)-1-ethyl-5-(2-fluoro-4-methylsulfonyl-phenyl)-6-methyl-4-oxo-pyridine-3-carboxylic acid]
AMAPA, percentage damage caused to the plant (five-point scale) [1]: 3 (3=41-60%) | AMARE, percentage damage caused to the plant (five-point scale) [2]: 4 (4=61-80%) | IPOHE, percentage damage caused to the plant (five-point scale) [3]: 2 (2=21-40%) | SETFA, percentage damage caused to the plant (five-point scale) (Setaria faberi (SETFA) [4]): 4 (4=61-80%) | ZEAMX, percentage damage caused to the plant (five-point scale) (Zea mays (ZEAMX) [5]): 2 (2=21-40%) | percentage damage to the plant, AMARE (five-point scale) [6]: 1 (1=0-20%) | percentage damage to the plant, SETFA (five-point scale) (Setaria faberi (SETFA) [7]): 5 (5=81-100%) | percentage damage to the plant, ECHCG (five-point scale) [8]: 5 (5=81-100%) | percentage damage to the plant, IPOHE (five-point scale) [9]: 1 (1=0-20%) | percentage damage to the plant, ZEAMX (five-point scale) (Zea mays (ZEAMX) [10]): 0 | percentage damage to the plant, AMAPA (five-point scale) [11]: 1 (1=0-20%)

CCn1c(C)c(-c2cccc(Oc3ccccc3)c2)c(=O)c(C(=O)O)c1-c1ccc(Cl)c(Cl)c1 [Compound 238, 2-(3,4-dichlorophenyl)-1-ethyl-6-methyl-4-oxo-5-(3-phenoxyphenyl) pyridine-3-carboxylic acid]
AMAPA, percentage damage caused to the plant (five-point scale) [1]: 4 (4=61-80%) | AMARE, percentage damage caused to the plant (five-point scale) [2]: 3 (3=41-60%) | IPOHE, percentage damage caused to the plant (five-point scale) [3]: 1 (1=0-20%) | SETFA, percentage damage caused to the plant (five-point scale) (Setaria faberi (SETFA) [4]): 1 (1=0-20%) | ZEAMX, percentage damage caused to the plant (five-point scale) (Zea mays (ZEAMX) [5]): 1 (1=0-20%) | percentage damage to the plant, AMARE (five-point scale) [6]: 0 | percentage damage to the plant, SETFA (five-point scale) (Setaria faberi (SETFA) [7]): 0 | percentage damage to the plant, ECHCG (five-point scale) [8]: 0 | percentage damage to the plant, IPOHE (five-point scale) [9]: 0 | percentage damage to the plant, ZEAMX (five-point scale) (Zea mays (ZEAMX) [10]): 0 | percentage damage to the plant, AMAPA (five-point scale) [11]: 0

CCn1c(C)c(-c2ccc(F)c(OC)c2F)c(=O)c(C(=O)O)c1-c1ccc(Cl)c(Cl)c1 [Compound 234, 2-(3,4-dichlorophenyl)-5-(2,4-difluoro-3-methoxy-phenyl)-1-ethyl-6-methyl-4-oxo-pyridine-3-carboxylic acid]
AMAPA, percentage damage caused to the plant (five-point scale) [1]: 5 (5=81-100%) | AMARE, percentage damage caused to the plant (five-point scale) [2]: 4 (4=61-80%) | IPOHE, percentage damage caused to the plant (five-point scale) [3]: 4 (4=61-80%) | SETFA, percentage damage caused to the plant (five-point scale) (Setaria faberi (SETFA) [4]): 4 (4=61-80%) | ZEAMX, percentage damage caused to the plant (five-point scale) (Zea mays (ZEAMX) [5]): 3 (3=41-60%) | percentage damage to the plant, AMARE (five-point scale) [6]: 2 (2=21-40%) | percentage damage to the plant, SETFA (five-point scale) (Setaria faberi (SETFA) [7]): 5 (5=81-100%) | percentage damage to the plant, ECHCG (five-point scale) [8]: 5 (5=81-100%) | percentage damage to the plant, IPOHE (five-point scale) [9]: 4 (4=61-80%) | percentage damage to the plant, ZEAMX (five-point scale) (Zea mays (ZEAMX) [10]): 2 (2=21-40%) | percentage damage to the plant, AMAPA (five-point scale) [11]: 3 (3=41-60%)

CCn1c(C)c(-c2cc(OC(F)(F)F)ccc2Cl)c(=O)c(C(=O)O)c1-c1ccc(Cl)c(Cl)c1 [Compound 224, 5-[2-chloro-5-(trifluoromethoxy)phenyl]-2-(3,4-dichlorophenyl)-1-ethyl-6-methyl-4-oxo-pyridine-3-carboxylic acid]
AMAPA, percentage damage caused to the plant (five-point scale) [1]: 5 (5=81-100%) | AMARE, percentage damage caused to the plant (five-point scale) [2]: 5 (5=81-100%) | IPOHE, percentage damage caused to the plant (five-point scale) [3]: 2 (2=21-40%) | SETFA, percentage damage caused to the plant (five-point scale) (Setaria faberi (SETFA) [4]): 5 (5=81-100%) | ZEAMX, percentage damage caused to the plant (five-point scale) (Zea mays (ZEAMX) [5]): 3 (3=41-60%) | percentage damage to the plant, AMARE (five-point scale) [6]: 3 (3=41-60%) | percentage damage to the plant, SETFA (five-point scale) (Setaria faberi (SETFA) [7]): 5 (5=81-100%) | percentage damage to the plant, ECHCG (five-point scale) [8]: 5 (5=81-100%) | percentage damage to the plant, IPOHE (five-point scale) [9]: 2 (2=21-40%) | percentage damage to the plant, ZEAMX (five-point scale) (Zea mays (ZEAMX) [10]): 2 (2=21-40%) | percentage damage to the plant, AMAPA (five-point scale) [11]: 4 (4=61-80%)
